Laboratory results from ChEMBL document CHEMBL5647700, “Crystal structure of an angiogenesis inhibitor bound to the FGF receptor tyrosine kinase domain” (EMBO J, 1998).

Assays:
[1] = target: Dual specificity mitogen-activated protein kinase kinase; MEK1/2 (Homo sapiens, UniProt P36507+Q02750); test: Inhibition of MEK (unknown origin) in presence of ATP; type: protein assay
[2] = target: Fibroblast growth factor receptor 1 (Mus musculus, UniProt P16092); test: Inhibition of FGFR1 autophosphorylation in mouse NIH/3T3 cells assessed as reduction in aFGF and heparin-induced autophosphorylation incubated for 5 mins before stimulation for 5 mins with aFGF and heparin by SDS-PAGE and immunoblot method; type: cell-based
Fibroblast growth factor receptor 1, sequence (P16092 whole entry): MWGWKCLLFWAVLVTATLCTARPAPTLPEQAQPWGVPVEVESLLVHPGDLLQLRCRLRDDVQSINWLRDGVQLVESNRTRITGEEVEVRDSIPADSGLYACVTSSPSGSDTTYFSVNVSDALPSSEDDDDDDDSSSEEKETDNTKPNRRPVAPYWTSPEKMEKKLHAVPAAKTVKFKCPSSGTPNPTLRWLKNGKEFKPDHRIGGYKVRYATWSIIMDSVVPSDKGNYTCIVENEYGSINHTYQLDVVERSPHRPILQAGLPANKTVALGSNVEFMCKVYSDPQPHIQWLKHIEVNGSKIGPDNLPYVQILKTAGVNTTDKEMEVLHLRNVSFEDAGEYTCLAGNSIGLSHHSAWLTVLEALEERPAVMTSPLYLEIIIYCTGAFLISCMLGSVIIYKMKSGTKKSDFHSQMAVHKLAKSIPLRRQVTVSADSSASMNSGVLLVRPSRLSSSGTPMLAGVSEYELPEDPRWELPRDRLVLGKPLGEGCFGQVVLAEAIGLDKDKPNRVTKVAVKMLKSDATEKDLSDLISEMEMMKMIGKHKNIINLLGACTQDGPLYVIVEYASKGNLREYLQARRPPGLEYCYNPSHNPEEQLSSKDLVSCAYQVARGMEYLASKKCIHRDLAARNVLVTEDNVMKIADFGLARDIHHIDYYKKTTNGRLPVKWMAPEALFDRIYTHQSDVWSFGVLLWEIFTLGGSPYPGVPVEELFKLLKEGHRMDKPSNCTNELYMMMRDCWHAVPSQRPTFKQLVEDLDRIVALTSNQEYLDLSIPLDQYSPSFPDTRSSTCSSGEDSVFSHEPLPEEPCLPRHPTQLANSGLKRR

[3] = Inhibition of VEGFR2 (unknown origin) expressed in mouse NIH/3T3 cells assessed as reduction in aFGF and heparin-induced autophosphorylation incubated for 5 mins before stimulation for 5 mins with aFGF and heparin by SDS-PAGE and immunoblot method; type: cell-based; conditions: NIH3T3
[4] = Inhibition of PDGFR cytoplasmic domain (unknown origin) in presence of ATP; design: species or system Homo sapiens
[5] = Toxicity in bFGF-induced Swiss Webster mouse angiogenesis model at 1 mg/kg, ip starting 3 days prior to or on the day of pellet implantation and then daily until day 5 post-implantation by Corneal neovascularization assay; type: organism-based; conditions: in vivo, 192 h, time 8 day
Mus musculus [6] = test: Inhibition of FGF-induced neovascularization in Swiss Webster mouse angiogenesis model at 1 mg/kg, ip starting 3 days prior to or on the day of pellet implantation and then daily until day 5 post-implantation by Corneal neovascularization assay; type: functional; conditions: 192 h, time 8 day
[7] = target: Proto-oncogene tyrosine-protein kinase Src (Homo sapiens, UniProt P12931); test: Inhibition of c-SRC (unknown origin) in presence of ATP
Proto-oncogene tyrosine-protein kinase Src, sequence (P12931 2-536 limits assumed): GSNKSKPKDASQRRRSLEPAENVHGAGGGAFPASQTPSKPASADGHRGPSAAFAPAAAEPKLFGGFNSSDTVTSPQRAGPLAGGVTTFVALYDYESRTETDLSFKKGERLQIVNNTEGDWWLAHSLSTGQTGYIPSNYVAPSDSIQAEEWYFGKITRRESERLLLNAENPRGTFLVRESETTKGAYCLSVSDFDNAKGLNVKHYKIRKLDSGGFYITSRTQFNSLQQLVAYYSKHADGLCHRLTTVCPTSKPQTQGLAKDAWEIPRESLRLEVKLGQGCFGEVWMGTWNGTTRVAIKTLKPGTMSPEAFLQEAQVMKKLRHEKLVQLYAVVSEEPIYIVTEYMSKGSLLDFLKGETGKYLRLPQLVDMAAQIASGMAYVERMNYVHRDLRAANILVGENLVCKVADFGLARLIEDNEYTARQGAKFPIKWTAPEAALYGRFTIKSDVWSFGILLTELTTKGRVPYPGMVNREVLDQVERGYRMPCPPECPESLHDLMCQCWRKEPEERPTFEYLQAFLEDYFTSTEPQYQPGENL

[8] = Inhibition of PKCalpha/beta/gamma isotype mixtures (unknown origin) in presence of ATP; design: species or system Homo sapiens
Mus musculus [9] = test: Inhibition of VEGF-induced neovascularization in Swiss Webster mouse angiogenesis model at 2 mg/kg, ip starting 3 days prior to or on the day of pellet implantation and then daily until day 5 post-implantation by Corneal neovascularization assay; type: functional; conditions: 192 h, time 8 day

IC50 [1]: > 50 µM
IC50 [2]: 0.001 µM
IC50 [3]: 0.1 µM
IC50 [4]: 17.6 µM
IC50 [7]: 19.8 µM
IC50 [8]: > 50 µM
Structure (SMILES): CCN(CC)CCCCNc1ncc2cc(-c3cc(OC)cc(OC)c3)c(NC(=O)NC(C)(C)C)nc2n1 [PD-173074]
Activity [5]: Non-Toxic
inhibition in vivo at 1 mg/kg (Mus musculus [6]): 86%
inhibition in vivo at 2 mg/kg (Mus musculus [9]): 81%
